In patent US20240238365A1, “AMYLOID-Beta AGGREGATION INHIBITOR, PHARMACEUTICAL COMPOSITION FOR AMYLOID-Beta AGGREGATION DISEASES, AND USE APPLICATION OF SAME” (O-FORCE CO., LTD., priority 2021, published 2024):
Entries after “also recorded” stand apart in the source; their conditions may differ. Where no end group is shown, it is not given here.

Legend:
Aß25-35 [1] = molecular target: T1, Aß25-35 (Homo sapiens, UniProt P05067); assay: Inhibition of Aß25-35 aggregation, thioflavin T (ThT) fluorescence; format: biochemical; settings: 0.1 mM peptide YS, 0.1 mM Aß25-35, 37° C., incubation 4 hours, n=3
Procedure: The peptides YS-11, YS-15, and YS-16 were used as the peptides YS of the examples. Each of the peptides was dissolved in MilliQ water to prepare three types of 1-mg/mL YS solutions.
An Aß-derived fragment peptide was used for aggregation of Aß. Aß25-35, which has high aggregability, was selected as the fragment peptide. The Aß25-35 is a peptide (SEQ ID NO: 7: GSNKGAIIGLM) constituted by 11 amino acid residues consisting of the twenty-fifth to thirty-fifth amino acid residues in the full length sequence of human-derived Aß (SEQ ID NO: 6). The Aß25-35 was dissolved in MilliQ water to prepare a 1-mmol/L Aß25-35 solution.
The fluorescent dye thioflavin T (ThT) binds to aggregates and emits strong fluorescence upon binding, and thus the increase or inhibition of aggregation can be determined by measuring the fluorescence intensity. Thus, the inhibition of aggregation of the Aß25-35 by each peptide YS was checked using ThT.
Specifically, a reaction solution with the following composition was prepared and dispensed into wells such that the amount of the reaction solution per well was 200 μL. After the reaction solution was incubated at 37° C. for a predetermined period of time (0 or 4 hours), 10 μL of 2-mmol/L ThT (reagent name “Thioflavine T”, manufactured by FUJIFILM Wako Pure Chemical Corporation) was added to each well, and the fluorescence intensity was measured using a measurement device (product name “Cytation5”, manufactured by BioTek) (n=3). The measurement wavelengths were set such that the excitation wavelength (ex) was 444 nm and the fluorescence wavelength (em) was 480 nm. As a control, a reaction solution to which water had been added instead of the peptide YS was also measured in the same way.

Aß25-35 aggregates [2] = molecular target: T2, Aß25-35 aggregates (Homo sapiens, UniProt P05067); assay: Peptide YS concentration versus ability to dissociate Aß25-35 aggregates (ThT fluorescence); format: biochemical; settings: 37° C.; for ability to dissociate Aß25-35 aggregates: 5 days after aggregate formation
Procedure: First, a reaction solution with the following composition was prepared, was dispensed into wells such that the amount of the reaction solution per well was 200 μL, and was incubated at 37° C. for 18 hours to form aggregates of the Aß25-35 in the reaction solution. 100 μL of an X-mmol/L peptide YS solution (YS-11 or YS-16) was further added to the reaction solution, and the resultant mixture was incubated at 37° C. for 5 days. The concentration (X mmol/L) of the peptide YS in the peptide YS solutions was set to […]. After the incubation, 10 μL of 2-mmol/L ThT was added to each well, and the fluorescence intensity was measured using the measurement device (n=3). The measurement wavelengths were set such that the excitation wavelength (ex) was 444 nm and the fluorescence wavelength (em) was 480 nm. As a control, a reaction solution (Aß25-35) to which water had been added instead of the peptide YS was also measured in the same way. [table]

Aß25-35 aggregates [3] = molecular target: T2, Aß25-35 aggregates; assay: Ability to dissociate pre-formed Aß25-35 aggregates (ThT fluorescence); format: biochemical; settings: aggregates formed 18 hours at 37° C., then 100 μL of 1-mmol/L peptide added, 5 days
Procedure: First, a reaction solution with the following composition was prepared and incubated at 37° C. for 18 hours to form aggregates of the Aß25-35 in the reaction solution. 100 μL of a 1-mmol/L peptide YS (YS-5 or YS-16) was further added to the reaction solution, and the resultant mixture was incubated at 37° C. for 5 days. After the incubation, the reaction solution was dispensed into wells such that the amount of the reaction solution per well was 200 μL. Furthermore, 10 μL of 2-mmol/L ThT was added to each well, and the fluorescence intensity was measured using the measurement device (n=3). The measurement wavelengths were set such that the excitation wavelength (ex) was 444 nm and the fluorescence wavelength (em) was 480 nm. As a control, a reaction solution to which water had been added instead of the peptide YS was also measured in the same way. [table]

Aß25-35 aggregates [4] = molecular target: T2, Aß25-35 aggregates; assay: Dissociation of Aß25-35 aggregates checked by scanning electron microscope; format: biochemical; settings: pre-formed aggregates; 100 μL of 0.05-mmol/L YS-11 or 1-mmol/L YS-16 solution added, 37° C., 5 days; versus no peptide
Procedure: A reaction solution with the following composition was prepared in a 1.5-mL tube (manufactured by Eppendorf) and incubated at 37° C. for 18 hours to form aggregates of the Aß25-35. Then, 100 μL of a peptide YS solution at a predetermined concentration was added to the reaction solution, and the resultant mixture was further incubated at 37° C. for 5 days. A 0.05-mmol/L YS-11 solution, a 1-mmol/L YS-16 solution, and a 1-mmol/L YS-6 solution were used as the peptide YS solution, and MilliQ water was used instead of the peptide YS solution as a control. After the incubation, centrifugation (12,000 rpm, 10 minutes) was performed to collect a precipitate. The precipitate was treated in the same manner as in Example 1(3) above, and was then observed under a scanning electron microscope. [table]

Aß25-35 [5] = molecular target: T1, Aß25-35; assay: Aggregation inhibition checked by scanning electron microscope; format: biochemical; settings: 0.1 mM peptide, 0.1 mM Aß25-35, 37° C., 4 hours, versus no peptide YS
Procedure: A reaction solution with the following composition was prepared in a 1.5-mL tube (manufactured by Eppendorf). After incubating at 37° C. for 4 hours, the reaction solution was centrifuged (12,000 rpm, 10 minutes), and a precipitate was collected. The collected precipitate was washed as follows: 200 μL of MilliQ water was added to the precipitate and the resultant mixture was centrifuged again (12,000 rpm, 10 minutes). This washing treatment was performed three times. Then, 100 μL of a 1% phosphotungstic acid solution was added to the collected precipitate. After the resultant mixture was left to stand for 5 minutes at room temperature, the precipitate was collected through centrifugation (12,000 rpm, 10 minutes), was washed by adding 200 μL of MilliQ water thereto, and was collected through centrifugation (12,000 rpm, 10 minutes). 100 μL of MilliQ water was added to the precipitate, and a suspension was formed using a Vortex mixer. The suspension was added to a glass slide and dried, followed by observation under a scanning electron microscope. [table]

Aß25-35 [6] = molecular target: T1, Aß25-35; assay: IC50 of YS peptide against Aß25-35 aggregation (ThT fluorescence); format: biochemical; settings: 37° C., ThT added 2 hours after start of incubation, blank corrected, n=3
Procedure: Reaction solutions with different compositions, namely those with the following compositions (A, B, C, and D), were prepared and dispensed into wells such that the amount of the reaction solution per well was 200 μL. The concentration (X mmol/L) of the peptide YS (YS-11 or YS-16) in the YS solution to be added to the reaction solutions was set to 0.01, 0.05, 0.1, 0.5, and 1 mmol/L. The reaction solutions were incubated at 37° C., and 10 μL of 2-mmol/L ThT (reagent name “Thioflavine T”, manufactured by FUJIFILM Wako Pure Chemical Corporation) was added to each well 2 hours after the start of the incubation. Then, the fluorescence intensity was measured using the measurement device (n=3). The measurement wavelengths were set such that the excitation wavelength (ex) was 444 nm and the fluorescence wavelength (em) was 480 nm. [table] […] In FIG. 2, the vertical axes indicate the fluorescence intensity (unit: FI), and the horizontal axes indicate the concentration of the peptide YS (unit: μmol/L).

[7] = system: ICR mice to which Aß25-35 had been administered; assay: Y-maze short-term memory test in mice given Aß25-35; format: in vivo
Procedure: The aggregation inhibiting peptide was further administered to mice to which the Aß25-35 had been administered, and then the effects of the aggregation inhibiting peptide was checked.
The Aß25-35 was dissolved in a saline solution to prepare a 3-mmol/L Aß25-35 solution. The Aß25-35 and the YS-11 were dissolved in a saline solution to prepare a mixed solution containing the Aß25-35 at a concentration of 3 mmol/L and the YS-11 at a concentration of 3 mmol/L. The YS-11 was dissolved in a saline solution to prepare a 10-mg/mL YS-11 solution. A saline solution (Saline) was used as a control.
ICR mice (6-week old) were prepared and divided into an Aß25-35 administration group (n=15), a control (Saline) administration group (n=15), a mixed solution administration group (n=6), and a peptide YS administration group (n=7).
The administration schedule was as follows: ventricular administration was performed on Day 1, and nasal administration was performed on Day 14, Day 17, Day 20, and Day 23. A microsyringe was used for the ventricular administration, and a Pipetman was used for the nasal administration. Specifically, the administration was performed on each administration group as follows. […]
Then, on Day 14 and Day 28, the short-term memory was evaluated using a Y-maze. […]

Row | Sequence | fluorescence intensity compared with the control (Aß25-35 without peptide YS) (Aß25-35 [1]) | aggregates dissociated (control Aß25-35 aggregates taken as 100%) (Aß25-35 aggregates [2]; final concentration of 0.1 mmol/L, 5 days) [%] | ability to dissociate Aß25-35 aggregates (Aß25-35 aggregates [2]; final concentration range of 0.01 to 0.1 mmol/L) | control aggregates dissociated (Aß25-35 aggregates [3]) [%] | fluorescence intensity relative to the control (Aß25-35) (Aß25-35 aggregates [3]) [%] | amount of fibrous aggregates under scanning electron microscope (Aß25-35 aggregates [4]) | fibrous material / formation of aggregates under scanning electron microscope (Aß25-35 [5]) | IC50 (Aß25-35 [6]) [nM] | ability to dissociate Aß25-35 aggregates (Aß25-35 aggregates [2]; final concentration range of 0.005 to 0.1 mmol/L) | alternation rate in Y-maze ([7]; Day 14, ventricular coadministration on Day 1 of 9 nmol Aß25-35 and 9 nmol YS-11 (mixed solution), n=6) | alternation rate in Y-maze ([7]; Day 28, Aß25-35 ventricular on Day 1, then YS-11 nasal 74 nmol on Day 14, 17, 20, 23, n=7)
1 | YKNMRETLVYLTHLD (aggregation inhibitor peptide) [YS-15] | significantly lower |  |  |  |  |  |  |  |  |  | 
2 | RETLVYLTHLDYDDTE [YS-16, RETLVYLTHLDYDDTE] | significantly lower; also recorded: considerably lower | 48 | excellent dissociating ability in a concentration-dependent manner | 50 | 50 | a decrease in the amount of fibrous aggregates | substantially no fibrous material was observed | 600 |  |  | 
3 | RETLVYLTHLD [YS-11, RETLVYLTHLD] | significantly lower; also recorded: considerably lower |  |  |  |  | a further decrease in the amount of fibrous aggregates | decreased very significantly | 3600 | excellent dissociating ability | as high as that of the control group | as high as that of the control group
